Assay results published in US8835458B2 (Hanmi Science Co., Ltd, priority 2010, dated 2014).
Where a name gives a salt, the structure may show the parent alone. Read-outs that look alike come from different tables or passages of the source.

Columns and labels:
[1] = tested on: MDA-MB-231 breast cancer cell lines; assay: Evaluation of inhibition on cell growth (MTS); format: cell-based; conditions: Homo sapiens, MDA-MB-231, 120 hours
Experimental: (§1) MDA-MB-231 breast cancer cell lines (ATCC #HTB-26) and BxPC-3 pancreas cancer cell lines (ATCC #CRL 1687), which have been reported to express XIAP, were obtained from ATCC (American type culture collection; Rockville, Md.). MDA-MB-231 cell lines were incubated in L-15 medium supplemented with 10% FBS and 1% penicillin/streptomycin (Gibco BRL) at a T-75 cm^2 growth flask. In addition, BxPC-3 cell lines were incubated in RPMI medium supplemented with 10% FBS and 1% penicillin/streptomycin. For experiments of toxicity to normal cells, fibroblasts Hs27 (ATCC #CRL 1634) and Balb/c3t3 (ATCC #CCL 163) were used. The various cell lines were transferred into 96-well plates at a density of 3,000˜5,000 cells/100 μL, and cultured for 24 hours under conditions of 37° C., 5% CO2, 95% air, and 100% relative humidity (MDA-MB-231 cells were cultured under atmospheric conditions). The cells were treated with 10 μM˜0.1 nM of test compounds, and MDA-MB-231, BxPC-3, and normal cell lines were cultured for 120, 96, and 72 hours, respectively.
(§2) Cell viabilities of MDA-MB-231 cell lines were measured at an absorbance of 490 nm using CellTiter 96™ AQueous One Solution Cell proliferation Assay (MTS, Promega), and cell viabilities of BxPC-3 and normal cell lines were measured by fixing cells with 10% TCA (trichloroacetic acid), staining with SRB (sulforhodamine B), and measuring at 540 nm. From the values, GI50 values in which test compounds reduce the growth of cancer cells by 50% were calculated. The growth rates of cancer cells were calculated from following Equation 1 or 2. [(Ti−Tz)/(C−Tz)]×100 (for Ti>=Tz) [Equation 1] [(Ti−Tz)/Tz]×100 (for Ti<Tz) [Equation 2] In Equations 1 and 2, Tz refers to a density of untreated cells, which is an absorbance in 0% cell growth groups. C refers to a density of cells cultured by adding only medium, and Ti refers to a density of cells treated with test compounds.
(§3) GI50 value is the concentration of a test compound when the value of Equation 1 is 50, which indicates the concentration of test compound required to inhibit the cancer cells by 50%. On each measurement, test compounds were compared with a control.
(§4) The activity value of each compound (GI50 value) was shown in Table 5, and an IAP antagonist was used as a control.
(§5) In the activity measurement on MDA-MB-231 breast cancer cell lines, the values were represented as “***” for 100 nM or less, “**” for over 100 nM to below 1,000 nM, and “*” for 1,000 nM or more. In the measurement on normal cell lines, Balb/C and Hs27, the values were represented as “+++” for 10,000 nM or more, “++” for over 5,000 nM to below 10,000 nM, and “+” for 5,000 nM or less.

[2] = Toxicity to normal cells (SRB); format: cell-based, mouse; conditions: mouse, Balb/c3t3 fibroblasts (normal cell line), read-out: BalB/C (GI50)
Experimental: as §1, §2, §3, §4, §5

[3] = Toxicity to normal cells (SRB); format: cell-based, human; conditions: human, Hs27 fibroblasts (normal cell line)
Experimental: as §1, §2, §3, §4, §5

CN[C@@H](C)C(=O)N[C@H](C(=O)N1CCC[C@H]1C(=O)Nc1cc2c(Nc3ccc(N4CCS(=O)(=O)CC4)cc3)ncnc2cc1OC)C(C)(C)C [Example 72, (S)—N-(4-((1,1-dioxide-4-thiomorpholinyl)phenylamino)-7-methoxyquinazolin-6-yl)-1-((S)-3,3-dimethyl-2-((S)-2-(methylamino)propanamido)butanoyl)pyrrolidine-2-carboxamide]
GI50 [1]: ≤ 100 nM | GI50 at 72 h [2]: > 10 µM | GI50 at 72 h [3]: > 10 µM

CCN(CC)c1ccc(Nc2ncnc3cc(OC)c(NC(=O)[C@@H]4CCCN4C(=O)[C@@H](NC(=O)[C@H](C)NC)C(C)(C)C)cc23)cc1 [Example 68, (S)-1-((S)-3,3-dimethyl-2-((S)-2-(methylamino)propanamido)butanoyl)-N-(7-methoxy-4-(4-diethylamino)phenylamino)quinazolin-6-yl)pyrrolidine-2-carboxamide dihydrochloride]
GI50 [1]: ≤ 100 nM | GI50 at 72 h [2]: > 10 µM | GI50 at 72 h [3]: > 10 µM

CN[C@@H](C)C(=O)N[C@H](C(=O)N1CCC[C@H]1C(=O)Nc1cc2c(Nc3cccc(OC)c3)ncnc2cc1OC)C(C)(C)C [Example 57, (S)-1-((S)-3,3-dimethyl-2-((S)-2-(methylamino)propanamido)butanoyl)-N-(7-methoxy-4-(3-methoxyphenylamino)quinazolin-6-yl)pyrrolidine-2-carboxamide hydrochloride]
GI50 [1]: ≤ 100 nM | GI50 at 72 h [2]: > 10 µM | GI50 at 72 h [3]: > 10 µM

CN[C@@H](C)C(=O)N[C@H](C(=O)N1CCC[C@H]1C(=O)Nc1cc2c(Nc3c(F)cccc3F)ncnc2cc1OC)C(C)(C)C [Example 59, (S)—N-(4-(2,6-difluorophenylamino)-7-methoxyquinazolin-6-yl)-1-((S)-3,3-dimethyl-2-((S)-2-(methylamino)propanamido)butanoyl)pyrrolidine-2-carboxamide]
GI50 [1]: ≤ 100 nM | GI50 at 72 h [2]: > 10 µM | GI50 at 72 h [3]: > 10 µM

CN[C@@H](C)C(=O)N[C@H](C(=O)N1CCC[C@H]1C(=O)Nc1cc2c(Nc3ccc(N4CCCCC4)cc3)ncnc2cc1OC)C(C)(C)C [Example 66, (S)-1-((S)-3,3-dimethyl-2-((S)-2-(methylamino)propanamido)butanoyl)-N-(7-methoxy-4-(4-(piperidin-1-yl)phenylamino)quinazolin-6-yl)pyrrolidine-2-carboxamide dihydrochloride]
GI50 [1]: ≤ 100 nM | GI50 at 72 h [2]: > 10 µM | GI50 at 72 h [3]: > 10 µM

CN[C@@H](C)C(=O)N[C@H](C(=O)N1CCC[C@H]1C(=O)Nc1cc2c(Nc3ccc(NC(C)=O)cc3)ncnc2cc1OC)C(C)(C)C [Example 69, (S)—N-(4-(4-acetamidophenylamino)-7-methoxyquinazolin-6-yl)-1-((S)-3,3-dimethyl-2-((S)-2-(methylamino)propanamido)butanoyl)pyrrolidine-2-carboxamide]
GI50 [1]: ≤ 100 nM | GI50 at 72 h [2]: > 10 µM | GI50 at 72 h [3]: > 10 µM

CN[C@@H](C)C(=O)N[C@H](C(=O)N1CCC[C@H]1C(=O)Nc1cc2c(Nc3ccc(OC)cc3)ncnc2cc1OC)C(C)(C)C [Example 49, (S)-1-((S)-3,3-dimethyl-2-((S)-2-(methylamino)propanamido)butanoyl)-N-(7-methoxy-4-(4-methoxyphenylamino)quinazolin-6-yl)pyrrolidine-2-carboxamide hydrochloride]
GI50 [1]: ≤ 100 nM | GI50 at 72 h [2]: > 10 µM | GI50 at 72 h [3]: > 10 µM

CN[C@@H](C)C(=O)N[C@H](C(=O)N1CCC[C@H]1C(=O)Nc1cc2c(Nc3ccccc3C)ncnc2cc1OC)C(C)(C)C [Example 27, (S)—N-(4-(o-toluidino)-7-methoxyquinazolin-6-yl)-1-((S)-3,3-dimethyl-2-((S)-2-(methylamino)propanamido)butanoyl)pyrrolidine-2-carboxamide hydrochloride]
GI50 [1]: ≤ 100 nM | GI50 at 72 h [2]: > 10 µM | GI50 at 72 h [3]: > 10 µM

CN[C@@H](C)C(=O)N[C@H](C(=O)N1CCC[C@H]1C(=O)Nc1cc2c(Nc3ccc(N4CCN(C)CC4)cc3)ncnc2cc1OC)C(C)(C)C [Example 67, (S)-1-((S)-3,3-dimethyl-2-((S)-2-(methylamino)propanamido)butanoyl)-N-(7-methoxy-4-(4-(4-methylpiperazin-1-yl)phenylamino)quinazolin-6-yl)pyrrolidine-2-carboxamide dihydrochloride]
GI50 [1]: ≤ 100 nM | GI50 at 72 h [2]: > 10 µM | GI50 at 72 h [3]: > 10 µM

CN[C@@H](C)C(=O)N[C@H](C(=O)N1CCC[C@H]1C(=O)Nc1cc2c(Nc3ccc(N4CCCC4)cc3)ncnc2cc1OC)C(C)(C)C [Example 65, (S)-1-((S)-3,3-dimethyl-2-((S)-2-(methylamino)propanamido)butanoyl)-N-(7-methoxy-4-(4-(pyrrolidin-1-yl)phenylamino)quinazolin-6-yl)pyrrolidine-2-carboxamide dihydrochloride]
GI50 [1]: ≤ 100 nM | GI50 at 72 h [2]: > 10 µM | GI50 at 72 h [3]: > 10 µM

CN[C@@H](C)C(=O)N[C@H](C(=O)N1CCC[C@H]1C(=O)Nc1cc2c(N3CCCCC3)ncnc2cc1OC)C(C)(C)C [Example 24, (S)-1-((S)-3,3-dimethyl-2-((S)-2-(methylamino)propanamido)butanoyl)-N-(7-methoxy-4-(piperidin-1-yl)quinazolin-6-yl)pyrrolidine-2-carboxamide hydrochloride]
GI50 [1]: ≤ 100 nM | GI50 at 72 h [2]: > 10 µM | GI50 at 72 h [3]: > 10 µM

CN[C@@H](C)C(=O)N[C@H](C(=O)N1CCC[C@H]1C(=O)Nc1cc2c(Nc3ccc(N4CCC(N5CCN(C)CC5)CC4)cc3)ncnc2cc1OC)C(C)(C)C [Example 105, (S)-1-((S)-3,3-dimethyl-2-((S)-2-(methylamino)propanamido)butanoyl)-N-(7-methoxy-4-((4-(4-(4-methylpiperazin-1-yl)piperidin-1-yl)phenyl)amino)quinazolin-6-yl)pyrrolidine-2-carboxamide hydrochloride]
GI50 [1]: ≤ 100 nM | GI50 at 72 h [3]: > 10 µM

CN[C@@H](C)C(=O)N[C@H](C(=O)N1CCC[C@H]1C(=O)Nc1cc2c(Nc3ccc(-n4ccnc4)cc3)ncnc2cc1OC)C(C)(C)C [Example 88, (S)—N-(4-((4-(1H-imidazol-1-yl)phenyl)amino)-7-methoxyquinazolin-6-yl)-1-((S)-3,3-dimethyl-2-((S)-2-(methylamino)propanamido)butanoyl)pyrrolidine-2-carboxamide hydrochloride]
GI50 [1]: ≤ 100 nM | GI50 at 72 h [3]: > 10 µM

CN[C@@H](C)C(=O)N[C@H](C(=O)N1CCC[C@H]1C(=O)Nc1cc2c(Nc3ccc(N4CCN(C(C)C)CC4)c(Cl)c3)ncnc2cc1OC)C(C)(C)C [Example 97, (S)—N-(4-((3-chloro-4-(4-isopropylpiperazin-1-yl)phenyl)amino)-7-methoxyquinazolin-6-yl)-1-((S)-3,3-dimethyl-2-((S)-2-(methylamino)propanamido)butanoyl)pyrrolidine-2-carboxamide hydrochloride]
GI50 [1]: ≤ 100 nM | GI50 at 72 h [3]: > 10 µM

CN[C@@H](C)C(=O)N[C@H](C(=O)N1CCC[C@H]1C(=O)Nc1cc2c(Nc3ccc(N4CCCCC4)c(F)c3)ncnc2cc1OC)C(C)(C)C [Example 85, (S)-1-((S)-3,3-dimethyl-2-((S)-2-(methylamino)propanamido)butanoyl)-N-(4-((3-fluoro-4-(piperidin-1-yl)phenyl)amino)-7-methoxyquinazolin-6-yl)pyrrolidine-2-carboxamide hydrochloride]
GI50 [1]: ≤ 100 nM | GI50 at 72 h [3]: > 10 µM
